Molecular target: T1, Pendrin (Homo sapiens, UniProt O43511)
T1 sequence (O43511 whole entry): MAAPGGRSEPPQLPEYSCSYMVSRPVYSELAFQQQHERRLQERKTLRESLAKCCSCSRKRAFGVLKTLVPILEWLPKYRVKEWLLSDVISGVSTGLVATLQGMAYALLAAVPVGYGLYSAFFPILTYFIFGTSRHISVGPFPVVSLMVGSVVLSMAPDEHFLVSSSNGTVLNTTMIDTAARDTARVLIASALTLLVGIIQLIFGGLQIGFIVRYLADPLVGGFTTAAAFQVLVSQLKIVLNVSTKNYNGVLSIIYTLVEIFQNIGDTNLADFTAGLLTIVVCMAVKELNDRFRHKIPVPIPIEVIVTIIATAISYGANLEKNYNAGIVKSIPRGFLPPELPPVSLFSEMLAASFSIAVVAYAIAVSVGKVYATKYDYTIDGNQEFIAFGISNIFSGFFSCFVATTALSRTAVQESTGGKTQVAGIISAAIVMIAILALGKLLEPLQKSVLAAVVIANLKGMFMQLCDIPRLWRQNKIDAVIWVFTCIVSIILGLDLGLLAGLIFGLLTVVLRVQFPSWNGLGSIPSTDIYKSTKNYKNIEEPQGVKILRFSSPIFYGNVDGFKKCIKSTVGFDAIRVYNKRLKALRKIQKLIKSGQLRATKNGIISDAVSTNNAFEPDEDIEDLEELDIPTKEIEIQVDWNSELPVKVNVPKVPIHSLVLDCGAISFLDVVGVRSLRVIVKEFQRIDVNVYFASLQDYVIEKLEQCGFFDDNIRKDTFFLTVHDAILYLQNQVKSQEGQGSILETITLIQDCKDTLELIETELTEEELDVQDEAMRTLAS
Experiment: Inhibition of Pendrin (unknown origin) transfected in rat FRT cells assessed as reduction in Cl-/I- ions exchange by YFP fluorescence quenching assay

SMILES: Cc1oc2ccc(OCc3ccccc3Cl)cc2c1C(=O)O
- IC50: 650 nM

From BindingDB's records for PubMed 39642691 (University of California San Francisco)
